Laboratory results: patent US20110207627A1, “EX VIVO THERAPEUTICS SCREENING OF LIVING BONE MARROW CELLS FOR MULTIPLE MYELOMA” (GEORGE MASON UNIVERSITY, priority 2008, published 2011)

Test system: CD138+ cells and bone marrow cells (BMC)
Assay: Ex vivo treatment of multiple myeloma bone marrow aspirates, reverse phase protein microarray, CD138+ cells compared with bone marrow cells
Assay type: cell-based, human
Details: female, treatment naive multiple myeloma patient; 4 hours ex vivo; IL-6 stimulated cells compared to IGF1R & Rapamycin combination (FIG. 3)
From the text: A workflow using protein kinase signal pathway mapping technology was developed for the ex vivo, short-term drug treatment of fresh, living human multiple myeloma (MM) bone marrow aspirate tumor cells, compared to non MM bone marrow cells for the same patient. The study sought a) to measure the signal pathway perturbations caused by the inhibitor/ligand treatment in individual baseline bone marrow aspirate samples, b) to correlate this with the susceptibility of the ex vivo living sample to apoptosis induction, within 4 hours, by a molecular targeted inhibitor which blocks this pathway, and c) to compare the relative sensitivity of tumor and non tumor bone marrow cells treated in admixture under identical conditions to identify predictive/prognostic protein-based biomarkers.
Human bone marrow aspirates (n=20) and clinical information were collected following an IRB approved protocol from patients providing informed consent. A portion of the aspirate that was not needed for pathological diagnosis was immediately fixed for baseline analysis and the remaining sample was separated into multiple aliquots for ex vivo treatment. […]
Reverse phase protein arrays were used to quantitatively map 60 to 75 signal pathway endpoints. The impact of each treatment was measured on the selected endpoint compared to the vehicle control. […]

“IL-6: cytokine used as exogenous ligand to stimulate cells” was tested, and the pro survival signaling was “Differential pro survival signaling”.
